# Assays:
# [1] = system: 5HT2A sensor; assay type: cell-based
# [2] = system: mice; assay: Head-twitch response (HTR); assay type: in vivo
# Description: Head twitch response (HTR) experiments. C57BL/6J Mice (9-10 weeks old) are housed following an IACUC approved protocol. The mice are habituated in the test cage for at least 30 min, injected intraperitoneally with compound (injection volume 5 ml/kg), returned to the empty test cage, and filmed for 20 minutes. Each video is scored for the number of head-twitches by a trained observer blinded to treatment condition.
# [3] = system: rat cortical neurons; assay: Neurite outgrowth assay; assay type: cell-based; set-up: key: A: Statistically significant mean increase as a percent of DMSO control at 10 μM or less.; B: No statistically significant mean increase as a percent of DMSO control at 10 μM or less; conditions: 72 h, 10 μM or less, vs DMSO control
# Description: Neurite Outgrowth Assay. Changes in the pattern of neurite outgrowth have been implicated in psychiatric and neurodegenerative disorders as well as traumatic injuries. The discovery of new compounds that can positively affect neuritogenesis are important for developing new therapeutics for neurological diseases. Measurement of neurite outgrowth of rat cortical neurons using an automated image-based assay was used to determine the neuroplastic effects of the compounds of the present invention. The neurite outgrowth assay was performed at Neurofit SAS (France) as described below.
# Pregnant Wistar rats (Janvier; France) were used for the study. They were delivered 6 days before their use. Upon arrival at Neurofit animal facility, they were housed one per cage and maintained in a room with controlled temperature (21-22° C.) and a reversed light-dark cycle (12 h/12 h; lights on: 17:30-05:30; lights off: 05:30-17:30) with food and water available ad libitum.
# Female Wistar rats of 17 days gestation were killed by cervical dislocation and the fetuses were removed from the uterus. Their brains were placed in ice-cold medium of Leibovitz (L15, Gibco, Fisher bioblock, France). Cortices were dissected and meninges were carefully removed. The cortical neurons were dissociated by trypsinization for 30 min at 37° C. (trypsin-EDTA, Gibco) in presence of 0.1 mg/ml DNAse I (Roche, France). The reaction was stopped by addition of Dulbecco's Modified Eagle Medium (DMEM; Gibco) with 10% of fetal bovine serum (FBS; Gibco). The suspension was triturated with a 10-ml pipette and using a needle syringe 21G and centrifuged at 350×g for 10 min at room temperature. The pellet of dissociated cells was resuspended in a medium consisting of Neurobasal (Gibco) supplemented with 2% B27 supplement (Gibco), 0.5 mM L-Glutamine (Gibco), an antibiotic-antimicotic mixture. Viable cells were counted in a Neubauer cytometer using the trypan blue exclusion test (Sigma). Cells were seeded at a density of 10000 cells per well in 96-well plate (Costar) precoated with poly-L-lysine. Test compound at different concentrations were added to the cultures. Donepezil (positive control) was tested at 250 nM.
# After 72 h (3 days) of plating, cultures were fixed with paraformaldehyde in PBS (4%, Sigma) for 30 min at 4° C. Then, cells were successively permeabilized with 0.1% Triton X100 for 30 min, saturated with PBS containing 3% of BSA and were incubated 1 h with anti-beta III tubulin antibody (Sigma) at 1/10 000 in PBS containing 0.5% of BSA. Cells were washed three times with PBS containing 0.5% of BSA, and they were incubated 1 h with goat anti-mouse antibody coupled with AF488 (Invitrogen A 11001) diluted at 1/1000 in PBS containing 0.5% of BSA. Finally, nuclei were staining with DAPI 1 mg/ml at 1/1000 in PBS containing 0.5% of BSA. After rinsing with PBS, the plate was filmed and neurite networks were examined and analyzed using High-Content Screening (CellInsight, Thermo Scientific). The average number of neurites per neuron and the average total length of neurites per neuron were the main parameters analyzed. Analysis of data was performed using analysis of variance (ANOVA). The Fisher's Protected Least Significant Difference test was used for multiple comparisons. A p value≤0.05 was considered significant. The software used is StatView 5.0 from SAS Institut.
# [4] = target: T1, 5-HT2A (Homo sapiens, UniProt P28223); assay: Serotonin 5-HT2A in vitro cellular IPOne agonism assay (HTRF); assay type: cell-based; set-up: host or cells: CHO-K1; conditions: CHO-K1 cells, agonist mode
# T1 sequence (P28223 whole entry): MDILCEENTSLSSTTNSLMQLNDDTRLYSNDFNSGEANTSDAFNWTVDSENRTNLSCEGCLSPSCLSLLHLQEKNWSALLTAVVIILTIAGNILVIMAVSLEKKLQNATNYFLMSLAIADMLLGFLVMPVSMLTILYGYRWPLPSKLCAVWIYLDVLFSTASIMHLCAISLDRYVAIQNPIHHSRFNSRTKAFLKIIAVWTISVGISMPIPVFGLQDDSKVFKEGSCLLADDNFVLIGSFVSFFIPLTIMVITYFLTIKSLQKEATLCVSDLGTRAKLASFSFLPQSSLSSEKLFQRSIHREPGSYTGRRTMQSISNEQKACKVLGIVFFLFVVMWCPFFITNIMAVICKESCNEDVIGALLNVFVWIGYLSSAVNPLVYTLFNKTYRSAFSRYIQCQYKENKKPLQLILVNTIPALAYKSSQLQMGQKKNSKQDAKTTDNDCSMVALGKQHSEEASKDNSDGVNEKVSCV
# Description: Serotonin 5-HT2A In Vitro Cellular IPOne Agonism Assay. The 5-HT2A IPOne HTRF assay was performed at Epics Therapeutics S.A. (Belgium, FAST-0505I) using conventional methods. Briefly, CHO-K1 cells expressing human recombinant 5-HT2A receptor grown to mid-log phase in culture media without antibiotics were detached with PBS-EDTA, centrifuged, and resuspended in medium without antibiotics buffer. 20,000 cells were distributed in a 96 well plate and incubated overnight at 37° C. with 5% CO2.
# For agonist testing, the medium was removed and 20 μl of assay buffer plus 20 μl of test compound or reference agonist are added in each well. The plate was incubated for 60 min. at 37° C. with 5% CO2.
# (§1) After addition of the lysis buffer containing IP1-d2 and anti-IP1 cryptate detection reagents, plates were incubated 1-hour at room temperature, and fluorescence ratios were measured according to the manufacturer specification, with the HTRF kit.
# [5] = target: T1, 5-HT2A; assay: Serotonin 5-HT2A in vitro cellular IPOne antagonism assay; assay type: cell-based; set-up: host or cells: CHO-K1; conditions: CHO-K1 cells, antagonist mode, reference agonist a-Me-5HT
# Description: Serotonin 5-HT2A and 5-HT2C In Vitro Cellular IPOne Antagonism Assay. The 5-HT2A IPOne HTRF assay was performed at Epics Therapeutics S.A. (Belgium, FAST-0505I) in antagonism mode using conventional methods. Briefly, CHO-K1 cells expressing human recombinant 5-HT2A receptor grown to mid-log phase in culture media without antibiotics were detached with PBS-EDTA, centrifuged, and resuspended in medium without antibiotics buffer. 20,000 cells were distributed in a 96 well plate and incubated overnight at 37° C. with 5% CO2.
# For antagonist testing, a reference agonist a-Me-5HT was added and fluorescence signal monitored for several minutes, followed by addition of 20 μl of assay buffer plus 20 μl of test compound or reference antagonist ketanserin, in each well. The plate was incubated for 60 min. at 37° C. with 5% CO2.
# as §1
# [6] = target: T1, 5-HT2A; assay: Serotonin 5-HT2A in vitro radioligand binding competition assay ([3H]-DOI); set-up: purchased Epics Therapeutics S.A. (Belgium) FAST-0505B; host or cells: membrane extracts; conditions: [3H]-DOI competition, membrane extracts
# Description: Serotonin 5-HT2A In Vitro Radioligand Binding Competition Assay. The 5-HT2A radioligand binding competition assay was performed at Epics Therapeutics S.A. (Belgium, FAST-0505B) using conventional methods. Briefly, competition binding was performed in duplicate in the wells of a 96 well plate (Master Block, Greiner, 786201) containing binding buffer (optimized for each receptor), membrane extracts (amount of protein/well optimized for each receptor), radiotracer [^3H]-DOI (final concentration optimized for each receptor) and test compound. Nonspecific binding was determined by co-incubation with 200-fold excess of cold competitor. The samples were incubated in a final volume of 0.1 ml at a temperature and for a duration optimized for each receptor and then filtered over filter plates. Filters were washed six times with 0.5 ml of ice-cold washing buffer (optimized for each receptor) and 50 μl of Microscint 20 (Packard) was added in each well. The plates were incubated 15 min on an orbital shaker and then counted with a TopCount™ for 1 min/well.
Structure (SMILES),activation of the 5HT2A sensor assay in agonist mode [1],other results
CCN(CC)C(=O)[C@@H]1C=C2c3cccc4[nH]c(Br)c(c34)C[C@H]2N(C)C1 [BOL148],do not activate,
"COc1ccc2[nH]cc(CCN(C)C)c2c1 [Compound 5-MeO-DMT, 5-MeO-DMT]",activate,"head-twitch response (HTR) [2]: robust, dose-dependent head-twitch response"
"CCN(CC)CCc1c[nH]c2cc(F)ccc12 [Compound 6-F-DET, 6-F-DET]",do not activate,
"COc1ccc2c(CCN(C)C)c[nH]c2c1 [Compound 6-MeO-DMT, 6-MeO-DMT]",do not activate,head-twitch response (HTR) [2]: does not produce a HTR
"CN1CCc2[nH]c3c(Br)ccc(OCc4ccccc4)c3c2CC1 [Compound 29, 10-(benzyloxy)-7-bromo-3-methyl-1,2,3,4,5,6-hexahydroazepino[4,5-b]indole]",,Increase in Neurite Branching [3]: B; Increase in Neurite Length [3]: A; Increase in Neurite Number [3]: B; EC50 [4]: 10 to 100 nM; IC50 [5]: 10 to 100 nM; IC50 [6]: 10 to 100 nM
"CN(C)CCc1c[nH]c2ccccc12 [DMT, N,N-dimethyltryptamine]",activate,
COc1cc(CC(C)N)c(OC)cc1I (centres unmarked) [DOI],activate,
O=C(c1ccc(F)cc1)C1CCN(CCn2c(=O)[nH]c3ccccc3c2=O)CC1 [Ketanserin],do not activate,
CNC(C)Cc1ccc2c(c1)OCO2 [L-MDMA],do not activate,
CCN(CC)C(=O)[C@@H]1C=C2c3cccc4[nH]cc(c34)C[C@H]2N(C)C1 [LSD],activate,
